Results as given in patent US20090286878A1, “POLYOL DERIVED ANTI-MICROBIAL AGENTS AND COMPOSITIONS” (priority 2008, published 2009).

Columns and labels:
Assay in all cases: Fungicidal activity, modified EN12175 test
Type in all cases: cell-based
[1] = tested on: Penicillium funiculosum; conditions: 1% concentration; for P. funic. log reduction 30 min: 30 min contact; for P. funic. log reduction 30 min / P. funic. log reduction 1 h / P. funic. log reduction 24 h: vs water control; for P. funic. log reduction 1 h: 1 h contact; for P. funic. log reduction 24 h: 24 h contact; for P. funic. cfu/mL (residual spore cell count): inoculum 3.60E+07 cfu/mL, room temperature
Method: (§1) Fungicidal activity is tested according to trivial modifications of the standard EN12175 test method. […] Penicillium funiculosum, Aspergillus niger and Aureobasidium pullulans are tested as important mold strains. The resulting cell count reduction is compared to a water control. […]

[2] = tested on: Aspergillus niger; conditions: 1% concentration; for A. niger log reduction 30 min: 30 min contact; for A. niger log reduction 30 min / A. niger log reduction 1 h / A. niger log reduction 24 h: vs water control; for A. niger log reduction 1 h: 1 h contact; for A. niger log reduction 24 h: 24 h contact; for A. niger cfu/mL (residual spore cell count): inoculum 2.60E+08 cfu/mL, room temperature
Method: as §1

[3] = tested on: Aureobasidium pullulans; conditions: 1% concentration; for A. pull. log reduction 30 min: 30 min contact; for A. pull. log reduction 30 min / A. pull. log reduction 1 h / A. pull. log reduction 24 h: vs water control; for A. pull. log reduction 1 h: 1 h contact; for A. pull. log reduction 24 h: 24 h contact; for A. pull. cfu/mL (residual spore cell count): inoculum 4.0E+06 cfu/mL, room temperature
Method: as §1

| Structure (SMILES) | P. funic. log reduction 30 min [1] | P. funic. log reduction 1 h [1] | P. funic. log reduction 24 h [1] | P. funic. cfu/mL (residual spore cell count) [1] | A. niger log reduction 30 min [2] | A. niger log reduction 1 h [2] | A. niger log reduction 24 h [2] | A. niger cfu/mL (residual spore cell count) [2] | A. pull. log reduction 30 min [3] | A. pull. log reduction 1 h [3] | A. pull. log reduction 24 h [3] | A. pull. cfu/mL (residual spore cell count) [3] |
| --- | --- | --- | --- | --- | --- | --- | --- | --- | --- | --- | --- | --- |
| CCCCCCCCCCCCNCCCCCC(=O)OCC(CC)(COC(=O)CCCCCNCCCCCCCCCCCC)COC(=O)CCCCCNCCCCCCCCCCCC [Ex 16] | >4 log | >4 log | >4 log | <10 cfu/mL | >4 log | >4 log | >4 log | <10 cfu/mL | >4 log | >4 log | >4 log | <10 cfu/mL |
| CCCCCCCCNCCC(=O)OCC(CC)(COC(=O)CCNCCCCCCCC)COC(=O)CNCCCCCCCC [Ex 18] | >4 log | >4 log | >4 log | <10 cfu/mL | >4 log | >4 log | >4 log | <10 cfu/mL | >4 log | >4 log | >4 log | <10 cfu/mL |
